“Also recorded” adds a separate entry of the source.

Holding throughout (type): biochemical
Experiment [1] deals with T1, HDAC4 (Homo sapiens, UniProt P56524).
T1 construct: purchased Reaction Biology
Description: HDAC enzymatic assay (Reaction Biology), HDAC4. The following applies: summary of Table 1. Here is the method:
(§1) Compound 1 was tested in an enzymatic assay from Reaction Biology® against 10 HDAC isoforms. The IC50 values were derived from a 10-dose response curve.
(§2) Base Reaction buffer: 50 mM Tris-HCl, pH8.0, 137 mM NaCl, 2.7 mM KCl, and 1 mM MgCl2, Add fresh: 1 mg/ml BSA, 1% DMSO
(§3) Class2A Substrate (HDAC4, HDAC5, HDAC7, and HDAC9): Boc-Lys(trifluoroacetyl)-AMC
(§4) 1. Delivered 2× enzyme in wells of reaction plate except in the control wells and added buffer to control wells. 2. Delivered compounds in 100% DMSO into the enzyme mixture by Acoustic technology (Echo550; nanoliter range). Spin down and pre-incubation. 3. Delivered 2× Substrate Mixture (Fluorogenic HDAC Substrate and co-factor if applicable) in all reaction wells to initiate the reaction. Spin and shake. 4. Incubated for 30 min for Class 2A, 1 h for HDAC1, 2, 3, and 6, and 2 h for the rest of HDAC isoforms and SIRTs at 30° C. with seal.
(§5) 5. Added Developer with Trichostatin A (or Nicotinamide for SIRTs) to stop the reaction and to generate fluorescent color. 6. The fluorescence that was generated was detected with excitation (Ex) at […] and emission (Em) at 460 nM by the EnVision Multilabel Plate Reader (PerkinElmer®, Santa Clara, Calif., USA).
(§6) IC50 values were derived from a 10-dose response curve.

Experiment [2] concerns the target T2, HDAC1 (Homo sapiens, UniProt Q13547).
T2 construct: purchased Reaction Biology
As to the kind of experiment: HDAC enzymatic assay (Reaction Biology), HDAC1. Here is the method:
as §1, §2
Fluorogenic HDAC General Substrate (HDAC1, HDAC2, HDAC3, HDAC6, HDAC10, and HDAC11): 50 μM, Arg-His-Lys-Lys(Ac)-AMC
as §4, §5, §6

Experiment [3] concerns the target T3, HDAC7 (Homo sapiens, UniProt Q8WUI4).
T3 construct: purchased Reaction Biology
T3 sequence (Q8WUI4 1-952): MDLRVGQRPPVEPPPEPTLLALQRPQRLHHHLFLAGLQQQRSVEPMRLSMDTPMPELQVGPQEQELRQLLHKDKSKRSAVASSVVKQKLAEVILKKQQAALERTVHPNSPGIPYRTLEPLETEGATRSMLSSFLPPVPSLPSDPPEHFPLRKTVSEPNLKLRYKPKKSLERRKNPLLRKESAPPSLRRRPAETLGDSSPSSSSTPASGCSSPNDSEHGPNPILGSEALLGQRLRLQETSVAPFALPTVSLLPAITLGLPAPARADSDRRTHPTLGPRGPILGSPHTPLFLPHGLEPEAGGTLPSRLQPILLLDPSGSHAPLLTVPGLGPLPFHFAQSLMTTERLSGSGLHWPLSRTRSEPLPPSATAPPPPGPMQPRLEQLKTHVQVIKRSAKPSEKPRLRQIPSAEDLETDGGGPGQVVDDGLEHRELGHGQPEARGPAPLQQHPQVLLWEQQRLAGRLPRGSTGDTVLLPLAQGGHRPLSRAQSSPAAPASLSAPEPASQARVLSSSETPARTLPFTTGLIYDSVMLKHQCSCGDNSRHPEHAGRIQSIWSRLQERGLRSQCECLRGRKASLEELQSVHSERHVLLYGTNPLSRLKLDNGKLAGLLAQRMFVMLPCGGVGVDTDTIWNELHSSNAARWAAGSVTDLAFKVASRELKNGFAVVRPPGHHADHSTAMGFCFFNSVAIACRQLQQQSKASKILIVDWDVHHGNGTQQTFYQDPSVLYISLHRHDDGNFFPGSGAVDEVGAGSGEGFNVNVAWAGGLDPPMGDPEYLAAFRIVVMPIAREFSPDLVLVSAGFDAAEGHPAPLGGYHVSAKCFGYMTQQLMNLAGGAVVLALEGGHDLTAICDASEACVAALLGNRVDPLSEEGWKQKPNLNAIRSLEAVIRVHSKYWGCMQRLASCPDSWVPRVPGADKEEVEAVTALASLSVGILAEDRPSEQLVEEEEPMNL
As to the kind of experiment: HDAC enzymatic assay (Reaction Biology), HDAC7. The following applies: summary of Table 1. Here is the method:
as §1, §2, §3, §4, §5, §6

The target in experiment [4] is T4, HDAC8 (Homo sapiens, UniProt Q9BY41).
T4 construct: purchased Reaction Biology
T4 sequence (Q9BY41 1-377): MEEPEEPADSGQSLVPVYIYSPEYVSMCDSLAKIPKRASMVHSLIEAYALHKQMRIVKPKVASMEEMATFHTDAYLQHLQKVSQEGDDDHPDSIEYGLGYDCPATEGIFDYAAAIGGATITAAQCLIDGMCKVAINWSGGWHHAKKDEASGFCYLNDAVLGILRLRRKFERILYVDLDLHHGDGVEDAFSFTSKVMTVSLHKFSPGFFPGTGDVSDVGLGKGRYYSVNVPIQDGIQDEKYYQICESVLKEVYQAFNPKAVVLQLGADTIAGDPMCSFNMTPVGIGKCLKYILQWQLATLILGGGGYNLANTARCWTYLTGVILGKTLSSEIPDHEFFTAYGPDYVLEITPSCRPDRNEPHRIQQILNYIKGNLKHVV
Description: HDAC enzymatic assay (Reaction Biology), HDAC8. As for the experimental part: as §1, §2
(HDAC8 only substrate: 50 μM, Arg-His-Lys(Ac)-Lys(Ac))-AMC
as §4, §5, §6

T2 sequence (Q13547 whole entry): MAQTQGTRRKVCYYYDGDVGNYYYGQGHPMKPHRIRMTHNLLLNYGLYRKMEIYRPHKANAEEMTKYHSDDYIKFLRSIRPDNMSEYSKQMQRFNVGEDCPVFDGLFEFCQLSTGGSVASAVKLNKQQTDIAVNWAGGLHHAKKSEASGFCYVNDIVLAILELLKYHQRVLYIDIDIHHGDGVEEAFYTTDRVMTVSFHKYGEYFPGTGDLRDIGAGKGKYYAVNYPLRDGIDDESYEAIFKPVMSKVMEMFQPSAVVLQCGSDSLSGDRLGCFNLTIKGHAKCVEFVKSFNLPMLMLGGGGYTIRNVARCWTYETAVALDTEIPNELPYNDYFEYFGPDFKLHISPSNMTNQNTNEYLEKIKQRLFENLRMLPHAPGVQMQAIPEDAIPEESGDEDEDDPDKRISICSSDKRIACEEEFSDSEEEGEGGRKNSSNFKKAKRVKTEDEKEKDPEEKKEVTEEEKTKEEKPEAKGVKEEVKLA
T1 sequence (P56524 whole entry): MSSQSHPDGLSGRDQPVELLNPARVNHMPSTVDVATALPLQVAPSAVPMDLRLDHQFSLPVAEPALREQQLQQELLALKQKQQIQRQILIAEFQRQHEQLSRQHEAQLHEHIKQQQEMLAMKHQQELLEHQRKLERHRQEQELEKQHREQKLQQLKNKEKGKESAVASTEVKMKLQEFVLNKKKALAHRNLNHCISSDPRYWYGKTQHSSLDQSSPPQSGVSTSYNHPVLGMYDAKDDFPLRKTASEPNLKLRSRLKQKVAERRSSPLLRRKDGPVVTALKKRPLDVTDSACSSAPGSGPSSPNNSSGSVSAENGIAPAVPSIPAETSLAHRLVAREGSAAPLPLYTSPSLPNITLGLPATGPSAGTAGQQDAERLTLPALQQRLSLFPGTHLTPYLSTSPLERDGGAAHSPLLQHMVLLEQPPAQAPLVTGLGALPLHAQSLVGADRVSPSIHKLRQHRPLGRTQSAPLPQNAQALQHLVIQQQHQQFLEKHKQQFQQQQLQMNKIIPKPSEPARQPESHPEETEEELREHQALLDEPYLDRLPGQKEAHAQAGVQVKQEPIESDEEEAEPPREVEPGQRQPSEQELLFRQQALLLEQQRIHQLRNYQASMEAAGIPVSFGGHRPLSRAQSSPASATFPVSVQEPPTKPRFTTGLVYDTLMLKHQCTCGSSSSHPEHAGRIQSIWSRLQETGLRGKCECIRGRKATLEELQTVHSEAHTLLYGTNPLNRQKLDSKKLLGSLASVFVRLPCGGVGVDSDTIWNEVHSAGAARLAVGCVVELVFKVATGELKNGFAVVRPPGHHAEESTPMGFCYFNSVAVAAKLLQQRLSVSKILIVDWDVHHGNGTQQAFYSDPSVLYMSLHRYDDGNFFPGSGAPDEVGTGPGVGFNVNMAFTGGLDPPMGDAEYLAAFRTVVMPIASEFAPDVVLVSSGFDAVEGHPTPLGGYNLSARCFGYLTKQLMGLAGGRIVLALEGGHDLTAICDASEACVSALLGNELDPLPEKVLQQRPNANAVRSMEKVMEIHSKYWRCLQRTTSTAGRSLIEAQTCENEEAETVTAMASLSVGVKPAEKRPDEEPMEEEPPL

One may read the IC50 as the concentration that inhibits the measured activity by half. In the case of `O=C(/C=C/c1ccc(CN(CCOCCOCCNc2cccc3c2C(=O)N(C2CCC(=O)NC2=O)C3=O)CCc2c[nH]c3ccccc23)cc1)NO` (stereo not drawn) [Compound 1, (E)-3-(4-(((2-(1H-indol-3-yl)ethyl)(2-(2-(2-((2-(2,6-dioxopiperidin-3-yl)-1,3-dioxoisoindolin-4-yl)amino)ethoxy)ethoxy)ethyl)amino)methyl)phenyl)-N-hydroxyacrylamide], the “inhibition of enzymatic activity of HDAC4 (in words)” value in experiment [1] is reported as “did not inhibit”. The IC50 in experiment [2] (10-dose response curve, read-out: Compound IC50 (M), HDAC1) stood at 1.06e-06 M; in experiment [4] (10-dose response curve, read-out: Compound IC50 (M), HDAC8) it was 4.51e-06 M. Also, the “inhibition of enzymatic activity of HDAC1 (in words)” value in experiment [2] (summary of Table 1) is “Moderate inhibition”. Moreover, the “inhibition of enzymatic activity of HDAC7 (in words)” value in experiment [3] is “did not inhibit”. For the same compound, the “inhibition of enzymatic activity of HDAC8 (in words)” value in experiment [4] (summary of Table 1) is listed as “potently inhibited; also recorded: Moderate inhibition”.

For the origin of these results see US20220387604A1, “SELECTIVE DUAL HISTONE DEACETYLASE 6/8 (HDAC6/8) DEGRADERS AND METHODS OF USE THEREOF” (DANA-FARBER CANCER INSTITUTE, INC., priority 2019, published 2022).
